Assay results reported in US11795218B2, “Diagnosis and therapy of cancer involving cancer stem cells” (BioNTech AG, priority 2014, dated 2023).
Counter-ions that a name gives are not always drawn.

Legend:
COV362(Luc) cells = assay: CLDN6 surface expression on COV362(Luc) cells after pretreatment with cytostatic agents (flow cytometry); format: cell-based, human; conditions: 4 days drug (5 ng/ml paclitaxel, 20 μg/ml carboplatin, 25 ng/ml gemcitabine, 20 ng/ml doxorubicin, 7.5 ng/ml topotecan), then 3 or 10 days without drug
Experimental: ADCC activity of IMAB027 in combination with chemotherapy was analyzed using COV362(Luc) target cells. Therefore, cells were treated for 4 days with carboplatin, gemcitabine, paclitaxel, doxorubicin or topotecan at indicated concentrations. After treatment, cells were grown for 3 (A-D) and 10 days (E-J) in the absence of cytostatic drugs, respectively. Control cells were cultured without cytostatics. (A, C, E, G, I) ADCC experiments were performed with IMAB027 (black lines) or an isotype control antibody (grey lines) using PBMC from healthy donors at an effector (PBMC) to target cell ratio of ˜40:1. Data points (n=4 replicates) are depicted as mean±SD. (B, D, F, H, J) Expression of CLDN6 was analyzed by flow cytometry using IMAB027.
The cells were washed twice and resuspended in FACS buffer. The binding was analysed by flow cytometry using a BD FACSArray (BD Biosciences) and FlowJo software (Tree Star Inc.). The live/dead dye propidium iodide (Sigma, P4864) was used to exclude dead cells from the analysis.
The human ovarian carcinoma cell line COV362 stably transfected with luciferase as a reporter was used to determine the influence of carboplatin and paclitaxel on IMAB027-mediated ADCC. COV362(Luc) cells (3×10^6 cells per 150 mm cell culture dish) were grown under standard conditions. After 24 h, cells were treated with 5 ng/ml paclitaxel, 20 μg/ml carboplatin, 25 ng/ml gemcitabine, 20 ng/ml doxorubicin or 7.5 ng/ml topotecan and incubated for 4 days. The medium was changed and the treated cells were grown under standard growth conditions for further 3 days for carboplatin and gemcitabine or 10 days for paclitaxel, doxorubicin or topotecan.

[1] = system: human NEC14 xenograft tumors; assay: Advanced NEC14 subcutaneous xenograft tumor model, IMAB027 with cisplatin or carboplatin; format: in vivo, mice; conditions: advanced s.c. NEC14 xenograft; cisplatin 1 mg/kg i.p. day 6-10; carboplatin 30 mg/kg i.p. day 6, 13, 20; IMAB027 35 mg/kg three times a week from day 6
Experimental: Subcutaneous human NEC14 xenograft tumors were grown to a median size of ˜100 mm^3 before the beginning of the treatment. Mice were treated with 1 mg/kg cisplatin by i.p. injections daily from day 6 to 10 post engraftment and with three 35 mg/kg IMAB027 injections per week (alternating i.v./i.p./i.p.) starting on day 6 as maintenance therapy. […] The arrow marks the time point of therapy start. (B) Individual tumor size in mice at day 24 post graft (mean with ±standard diviation). (C) Survival curves of treated mice. Group size: n=19. P-values: *, p<0.05; **, p<0.01 and ***, p<0.001.
Instead of cisplatin, mice were treated with 30 mg/kg carboplatin on days 6, 13 and 20 by bolus i.p. injections. […] The arrow marks the time point of therapy start. (B) Individual tumor size in mice at day 24 post graft (mean with ±standard diviation). (C) Survival curves of treated mice. Group size: n=19. P-values: *, p<0.05; **, p<0.01 and ***, p<0.001. […]
For treatment of advanced human NEC14 xenograft tumors the human testicular germ cell tumor cell line NEC14 was cultivated according to the instructions of the supplier in RPMI 1640 medium GlutaMAX™ (Life Technologies) containing 10% FCS (Life Technologies) at 3TC in a humidified incubator with 5% CO2. […] Tumor burden were monitored twice a week. […] Inhibition of tumor growth was analyzed using the Kruskal-Wallis test and the post-hoc Dunn's multiple comparison test.

[2] = system: human ES-2(CLDN6) xenograft tumors; assay: Early ES-2(CLDN6) subcutaneous xenograft tumor model, IMAB027 with paclitaxel; format: in vivo, mice; conditions: s.c. ES-2(CLDN6) xenograft; paclitaxel 15 mg/kg i.p. day 3, 10, 17; IMAB027 35 mg/kg three times a week from day 4; vs control group
Experimental: Subcutaneous human ES-2 xenograft tumors ectopically expressing human CLDN6 were treated with 15 mg/kg paclitaxel on day 3, 10 and 17 post graft by i.p. injections. Antibody maintenance therapy started on day 4 with three 35 mg/kg IMAB027 injections per week (alternating i.v./i.p./i.p.).
Hsd:Athymic Nude-Foxn1^nu mice were engrafted with human cancer cell lines. […] The control group received antibody buffer (vehicle control).
Specifically, for treatment of human ES-2(CLDN6) xenograft tumors, the human ovarian carcinoma cell line ES-2 stably transfected with human CLDN6 was cultivated in Minimum Essential Media (Life Technologies) containing 1 x non-essential amino acids solution (Life Technologies), 700 μg/ml G418 (Life Technologies) and 10% FCS (Life Technologies) at 3TC in a humidified incubator with 5% CO2. For engraftment, 6 week-old female Hsd:Athymic Nude-Foxn1^nu mice were subcutaneously inoculated with 5×10^6 ES-2(CLDN6) cells in 200 μl PBS into the flank. On day 3 post subcutaneous tumor inoculation, mice were treated with either saline control, antibody or chemotherapeutic drug monotherapy and antibody/cytostatic drug combination therapy groups (n=12 per group). […] Tumor burden and animal health were monitored twice a week. […] Inhibition of tumor growth was analyzed using the Kruskal-Wallis test and the post-hoc Dunn's multiple comparison test.

Row | SMILES | protein levels of CLDN6 on the cell surface after pretreatment (COV362(Luc) cells) | tumor growth / anti-tumoral efficacy [1] | tumor growth / anti-tumoral activity [2]
1 | COc1cccc2c1C(=O)c1c(O)c3c(c(O)c1C2=O)C[C@@](O)(C(=O)CO)C[C@@H]3O[C@H]1C[C@H](N)[C@H](O)[C@H](C)O1 [doxorubicin] | increased protein levels of CLDN6 on the cell surface |  | 
2 | N.N.[Cl][Pt][Cl] [cisplatin, cis-diamminedichloroplatinum(II)] |  | highly significantly reduce tumor growth | 
3 | CC(=O)O[C@H]1C(=O)[C@@]2(C)[C@H]([C@H](OC(=O)c3ccccc3)[C@]3(O)C[C@H](OC(=O)[C@H](O)[C@@H](NC(=O)c4ccccc4)c4ccccc4)C(C)=C1C3(C)C)[C@]1(OC(C)=O)CO[C@@H]1C[C@@H]2O [paclitaxel, (2α,4α,5β,7β,10β,13α)-4,10-bis-(acetyloxy)-13-{[(2R,3S)-3-(benzoylamino)-2-hydroxy-3-phenylpropanoyl]oxy}-1,7-dihydroxy-9-oxo-5,20-epoxytax-11-en-2-yl benzoate] | increased protein levels of CLDN6 on the cell surface |  | does not show anti-tumoral activity
4 | Nc1ccn([C@@H]2O[C@H](CO)[C@@H](O)C2(F)F)c(=O)n1 [gemcitabine, 4-amino-1-(2-deoxy-2,2-difluoro-β-D-erythro-pentofuranosyl)pyrimidin-2 (1H)-one] | increased protein levels of CLDN6 on the cell surface |  | 
5 | CC[C@@]1(O)C(=O)OCc2c1cc1n(c2=O)Cc2cc3c(CN(C)C)c(O)ccc3nc2-1 [topotecan, (S)-10-[(dimethylamino)methyl]-4-ethyl-4,9-dihydroxy-1H-pyrano[3′,4′:6,7]indolizino[1,2-b]quinoline-3,14(4H,12H)-dione monohydrochloride] | increased protein levels of CLDN6 on the cell surface |  | 
